Read-outs that look alike come from different tables or passages of the source.
Tests used:
[1] = Column chromatography determination of drug loading limit of NAC-drug; type: physicochemical; conditions: Drug only (MTN, no carrier)
Description: In a dosage form suitable for parenteral administration, the nucleic acid can be combined with the drug in an aqueous formulation of saline, dextrose or other suitable aqueous vehicle suitable for administration. It is preferred that the drug and the nucleic acid are combined in water or other suitable medium, prior to dilution in saline or media, in order to prevent inhibition of drug binding to the nucleic acid. The dosage form can be sterilized by a variety of means, and can optionally take the form of a concentrate that can be diluted in saline or other suitable vehicle prior to injection. It is preferred to minimize the amount of free drug in the injectable solution, such that the mass ratio of nucleic acid to drug is sufficient to bind most of the drug, and to limit free drug in the bloodstream. […] The percentage loading possible for other nucleic acid binding drugs will vary depending on their binding characteristics, and can be determined by column chromatography, spectrophotometry, and cytotoxicity assay methods as described herein. […]
Determination of drug loading limit of mitoxantrone (MTN) in a nucleic acid carrier (NAC) using a 2.5×9 cm G25 column (EX031904) and herring sperm DNA (HSDNA approx. range 10-100 bp Sigma-Aldrich). […] Collected 5 ml and checked absorbance scan of 0.2 ml sample on Synergy HT1. […] Collected 7.5 ml and read absorbance scan of 0.2 ml sample. […]

[2] = In vivo MTN distribution in organs after single i.v. dose (Example 15, EX102005); set-up: species or system mice; conditions: iv, 0.075 mg MTN per mouse i.v.
Protocol: Procedure: Prior to formulation of MTN with carrier, the DNA carrier was standardized and assayed for loading limits with MTN by absorbance spectrometry. […] Herring sperm […] […] One milliliter (1 ml) of each homogenate was then transferred to a 1.7 ml centrifuge tube and centrifuged for 10 min at 10000 rcf. Supernatants were removed and fluorescence of 0.3 ml of samples was read at 620/680 nm s=50. […] Total MTN was calculated by converting fluorescence data to mg/ml MTN using a MTN standard curve. The mg/ml MTN was then multiplied by total vol. homogenate to obtain total MTN per organ.

[3] = In vivo MTN distribution in organs and recovery in urine after multiple i.v. dosing (Example 16, EX102205)
Protocol: Differential targeting and distribution of NAC-MTN or MTN in major organs of the mouse. NAC-MTN or MTN was administered intravenously to mice and detected in major organs after 24 hours. […] Total MTN in tissues was quantified by MTN fluorescence, normalized against total tissue weight, and reported as MTN mg/g tissue.
Mice n=2, were injected i.v. with repeated dose of either NAC-MTN or MTN alone. MTN administered was the same for each mouse.
A 0.4 ml volume of each NAC-MTN or MTN formulation was prepared for injection in HBSS or H2O (Hanks Buffered Saline, Sigma-Aldrich) as indicated below. For NAC-MTN injection, 45 ul 10 mg/ml MTN was diluted first in 325 ul of HBSS solution, then 180 ul of herring sperm DNA (HSDNA, 50 mg/ml stock neutralized, 0.2 um filtered) was added to give a turquoise blue color. […] In MTN injection, 45 ul 10 mg/ml MTN was diluted in 385 ul of H2O.
On day 1, white mice, n=2, 24 g each, were tail vein injected by a micro-catheter with 0.16 ml at 14:50 or 0.15 ml at 15:30, respectively of either NAC-MTN or MTN. A second injection was followed at 17:00 and 16:50 of 0.2 ml each of NAC-MTN or MTN. To quantify total MTN retained, mouse urine was collected after 1st and 2nd injection. Total MTN was assayed in mouse urine immediately after 1st injection and second injection by reading MTN fluorescence 620/680 s=50 of a 0.2 ml sample in a styrene well, bottom read. […] A third dose of 0.2 ml was given the next morning, 22 hours after 1st injection (day 2), of either NAC-MTN or MTN. […] Twenty four hours after first injection (day 2), mice were sacrificed and MTN assayed in major organs. The liver, kidneys, heart, and lung were homogenized at high speed 50,000 rpm, and treated with 1% SDS (sodium dodecyl sulfate). The homogenates were frozen twice and centrifuged for 30 minutes at 14000 rcf.

[4] = three i.v. doses, 24 hours after first injection

## O=C1c2c(O)ccc(O)c2C(=O)c2c(NCCNCCO)ccc(NCCNCCO)c21 [MTN, mitoxantrone]
[1]
  G25 Column Results: Single band, slow
[2]; heart, read-out: Density of MTN in tissue: Heart
  concentration at 1 h: 96000 ng/g
[2]; kidney, read-out: Density of MTN in tissue: Kidney
  concentration at 1 h: 49000 ng/g
[2]; liver, read-out: Density of MTN in tissue: Liver
  concentration at 1 h: 10000 ng/g
[2]; lung, read-out: Density of MTN in tissue: Lung
  concentration at 1 h: 43000 ng/g
[3]; Collect Time 0-2 hr
  MTN % dose recov. (urine): 2.9%
[3]; Collect Time 0-2 hr, dose 0.18 mg (NAC-MTN) or 0.17 mg (MTN) at 0 hr
  MTN Recov. (urine): 0.0049 mg
[3]; Collect Time 3-12 hr
  MTN % dose recov. (urine): 12%
[3]; Collect Time 3-12 hr, dose 0.225 mg at 3 hr
  MTN Recov. (urine): 0.0279 mg
[3]; Collect Time 12-24 hr
  MTN % dose recov. (urine): 13%
[3]; Collect Time 12-24 hr, dose 0.225 mg at 22 hr
  MTN Recov. (urine): 0.0297 mg
[3]; [4]
  MTN in Heart: 0.033 mg/g tissue
  MTN in Kidney: 0.26 mg/g tissue
  MTN in Liver: 0.077 mg/g tissue
  MTN in Lung: 0.027 mg/g tissue
[3]; three i.v. doses, 24 hours after first injection, listed as MTN only
  MTN in Kidney: 0.261 mg/g tissue
